Counter-ions that a name gives are not always drawn. Like-named read-outs stand apart in the source and are kept apart here.
Assays:
[1] = test system: SUDHL5 cells; test: Antiproliferation assay (CellTiter-Glo, 72 h), SUDHL5; assay type: cell-based; conditions: IC50, median; SUDHL5, 72 h; read-out: Antiproli SUDHL5 [M] (median)
In short: (§1)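 CellTiter-Glo luminescence readout; 72 h compound exposure, 37 °C, humidified; rim wells excluded; time-zero reference plate plated in parallel and read identically.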

[2] = test system: MV-4-11 cells; test: Antiproliferation assay (CellTiter-Glo, 72 h), MV-4-11; assay type: cell-based; conditions: IC50, median; MV-4-11, 72 h; read-out: Antiproli MV-4-11 [M] median
Method: (§2) Assessment of the Anti-Proliferative Effect of Compounds in Different Cell Lines
(§3) The impact of compounds on the proliferation of different cell lines was assessed using the CellTiter-Glo® Luminescent Cell Viability reagent from Promega (G7573).
(§4) In parallel, cells were plated in a reference (day 0) plate for time zero determination.
(§5) Rim wells were excluded. The cells were incubated for 72 h hours in a humidified incubator at 37° C. The day 0 plate was measured by adding 30 μL/well of CTG solution (CellTiter-Glo® Luminescent Cell Viability reagent, Promega G7573) to time zero wells in the reference plate followed by a 10 minutes incubation and luminescence reading at 0.1 ms. using the PHERAstar FS microplate reader (BMG Labtech).
(§6) After 72 h incubation, the treated plates were measured in the same way as the day 0 plate mentioned above.

[3] = biological target: MCL-1 (Homo sapiens (Human), UniProt Q07820, K194A/K197A/R201A); test: Protein-protein interaction assay MCL-1/Noxa BH3 peptide (MCL-1 assay), TR-FRET; assay type: binding; conditions: IC50, median; MCL-1/Noxa BH3 TR-FRET
Sequence of MCL-1 (Q07820 whole entry K194A/K197A/R201A, looked up, the tested form may be a part): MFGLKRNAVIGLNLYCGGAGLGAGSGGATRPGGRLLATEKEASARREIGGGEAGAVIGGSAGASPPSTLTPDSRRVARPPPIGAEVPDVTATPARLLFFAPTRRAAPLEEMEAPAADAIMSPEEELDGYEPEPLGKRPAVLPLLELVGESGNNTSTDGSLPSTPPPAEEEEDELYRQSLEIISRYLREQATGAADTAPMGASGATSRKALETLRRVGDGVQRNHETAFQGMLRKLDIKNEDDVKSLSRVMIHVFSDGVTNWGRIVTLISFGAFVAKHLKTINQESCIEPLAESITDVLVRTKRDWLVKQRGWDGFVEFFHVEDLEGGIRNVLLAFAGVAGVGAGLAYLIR
Method: The dose-dependent inhibition by the compounds described in this invention of the interaction between MCL-1 and the BH3 domain of Noxa (both human) was determined using a steady state binding competition assay with time-resolved fluorescence energy transfer (TR-FRET) readout. […] The MBP-MCL-1 was purchased from Beryllium (Bedford, Mass., USA). The expression and purification of this protein construct has been described elsewhere (DOI:10.1371/journal.pone.0125010). The Noxa BH3-derived peptide can be obtained from e.g. Biosyntan (Berlin, Germany), 50812.1.
For that, 100-fold concentrated DMSO solutions were prepared by serial dilutions (1:3.4) of a 2 mM stock solution in a clear, 384-well microtiter plate (Greiner Bio-One, Frickenhausen, Germany). From there, 50 nl were transferred in a dark test plate (Greiner Bio-One, Frickenhausen, Germany). […] This was followed by a 10-minute incubation step at 22° C. for pre-equilibration of the putative complex between MBP-MCL-1 and the compounds.
The mixture was incubated in the dark for one hour at 22° C. and then overnight at 4° C.
The resulting data (ratio) were normalized, taking 0% inhibition as the mean value of control measurements (usually 32 data points) where all reagents were included. In this case 50 nl DMSO were used instead of compounds. […] IC50 values were determined by regression analysis based on a 4 parameter equation (minimum, maximum, IC50, Hill; Y=Max+(Min−Max)/(1+(X/IC50)^Hill) using the Screener Software (Genedata).

[4] = test system: HMC-1-8 cells; test: Antiproliferation assay (CellTiter-Glo, 72 h), HMC-1-8; assay type: cell-based; conditions: IC50, median, HMC-1-8, 72 h, read-out: Antiproli HMC-1-8 [M] median
In short: as §1

[5] = test system: SUDHL5 cells; test: Induction of caspase-3/7 activity (Caspase-Glo 3/7), SUDHL5; assay type: cell-based; conditions: EC50, median; SUDHL5, 3 h treatment
In short: (§7)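 Caspase-Glo 3/7 luminescence after 3 h compound treatment, 37 °C, humidified; medium-only background subtracted; rim wells excluded.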

[6] = test system: DMS-114 cells; test: Antiproliferation assay (CellTiter-Glo, 72 h), DMS-114; assay type: cell-based; conditions: Homo sapiens, DMS-114, 72 h; read-out: Antiproli DMS-114 [M] median
Method: as §2, §3, §4, §5, §6

[7] = test system: SNU-389 cells; test: Antiproliferation assay (CellTiter-Glo, 72 h), SNU-389; assay type: cell-based; conditions: read-out: Antiproli SNU-389 [M] median
Method: as §2, §3, §4, §5, §6

[8] = test system: SUDHL10 cells; test: Induction of cytotoxicity (CellTiter-Glo, 5 h), SUDHL10; conditions: read-out: Cytotox SUDHL10 [M] (median); IC50, median; SUDHL10, 5 h
[9] = test system: SUDHL10 cells; test: Induction of caspase-3/7 activity (Caspase-Glo 3/7), SUDHL10; assay type: cell-based; conditions: EC50, median; SUDHL10, 3 h treatment
In short: as §7

[10] = test system: SUDHL5 cells; test: Induction of cytotoxicity (CellTiter-Glo, 5 h), SUDHL5; conditions: read-out: Cytotox SUDHL5 [M] (median); IC50, median; SUDHL5, 5 h
[11] = test system: AMO-1 cells; test: Antiproliferation assay (CellTiter-Glo, 72 h), AMO-1; assay type: cell-based; conditions: IC50, median, AMO-1, 72 h, read-out: Antiproli AMO-1 [M] median
In short: as §1

[12] = biological target: MCL1 protein (Homo sapiens (Human), UniProt Q07820); test: PIxEL: protein-protein interaction in permeabilized cells by ELISA (MCL1/biotin-BIM BH3 peptide, RKO cells); assay type: cell-based; conditions: IC50, median, serum free
Sequence of MCL1 protein (Q07820 whole entry): as the sequence (Q07820 whole entry K194A/K197A/R201A, looked up, the tested form may be a part) above, with A194K, A197K, A201R counted along it
Method: PIxEL: Protein-Protein Interaction in Permeabilized Cells by ELISA
Most MCL1 protein molecules are localized at the mitochondria outer membrane and sequester pro-apoptotic proteins through binding of their BCL2 homology domain 3 (BH3 domain). MEB buffer (150 mM mannitol, 10 mM HEPES pH 7.5, 50 mM KCl, 20 μM EDTA, 20 μM EGTA, 5 mM potassium succinate, 0.1% protease-free BSA (SIGMA) with low dose digitonin (0.002%) permeabilizes plasma membrane while leaves live mitochondria, where MCL1 maintains its native localization and conformation. Unlike biophysical assays (e.g. TR-FRET) that use truncated recombinant MCL1 protein, this assay uses full length endogenous MCL1 protein at mitochondria outer membrane. It measures the interaction between MCL1 protein and biotinylated BIM BH3 peptide. Compounds can compete with BIM BH3 peptide to bind to MCL1 protein.
On day 1, RKO colon cancer cell line cells were plated at 0.8 million cells/ml, 100 μl/well in 96-well flat bottom TC plates (Corning). MCL1 antibody (Santa Cruz sc-12756) were diluted at 200 fold (final concentration 1 μg/ml) in carbonate buffer (Thermo Fisher Scientific, pH 9.6), and 50 μl of diluted antibody was added to each well of high bind ELISA plates ([…]). Each plate was tapped to make sure liquid covering entire bottom of wells and incubate at 37° C. overnight.
On the second day, MCL1 antibody was washed from ELISA plate. 250 μl Odyssey® Blocking Buffer (PBS) (Li-Cor) was added to each well, incubated at room temperature for at least 1 hour, then washed once with 250 μl 1×PBST. Plates with RKO cells were gently washed once with 100 μl/well PBS, once with 100 μl/well MEB buffer without digitonin, then 100 μl of MEB buffer with 0.002% digitonin was gently added to each well. Compounds were added with HP Tecan compound dispenser in 3-fold dilution series, highest dose 30 μM, 10-dose per compound in quadruplicates. Biotin-BIM peptide (synthesized by 21st Century) was added with HP Tecan compound dispenser at 0.2 μM immediately after the addition of compounds. Plates were rocked for 1 hour at room temperature. Then MEB buffer was aspirated and 50 μl of CHAPS buffer (50 mM Tris-Cl, pH 7.4, 150 mM NaCl, 1% CHAPS, 1 mM EDTA, 1 mM EGTA, cOmplete protease inhibitors (Roche), PhosSTOP (Roche)) was added to each well. Plates were rocked for 1 hour at 4° C., then 45 μl cell lysate from each well were transferred to ELISA plates coated with MCL1 antibody. Plates were incubated overnight in the cold room with rocking.
On the third day, ELISA plates were washed once with 250 μl 1×PBST. Streptavidin-poly-HRP (Thermo Fisher Scientific) was diluted to 20 ng/ml in Odyssey blocking buffer plus 0.05% Triton-100, and 100 μl was added to each well of the ELISA plate. Plates were incubated at RT from 1 hour with rocking, then washed with 100 μL 1×PBST for 3 times. Each SuperSignal ELISA Femto Maximum Sensitivity substrate was added to a 50-ml tube and mixed, then 100 μl of mixed substrate was added to each well. Plates were shaken for 1 minute then luminescence was measured by Envision plate reader […]. Signal of each well were normalized by no-compound control and no-cell control. IC50 was calculated using Graphic Pad PRISM software.

Structure (SMILES)	IC50 [1] [M]	IC50 [2] [M]	IC50 [4] [M]	EC50 [5] [nM]	IC50 [8] [M]	EC50 [9] [nM]	IC50 [10] [M]	other results
Cc1c2c(nn1C)COCCCCn1c(C(=O)O)c(CCCOc3cccc4ccccc34)c3ccc(Cl)c-2c31 (single isomer, unassigned; enantiomer 2) [Example 27, 4-chloro-2,3-dimethyl-7-[3-(naphthalen-1-yloxy)propyl]-2,10,11,12,13,15-hexahydropyrazolo-[4′,3′:9,10][1,6]oxazacycloundecino[8,7,6-hi]indole-8-carboxylic acid-N-ethylethanamine salt (Enantiomer 2)]	7.8e-06	1.61e-05	–	–	–	–	–	–
CCc1c2c(nn1C)CN(CCN1CCOCC1)CCCCn1c(C(=O)O)c(CCCOc3cccc4cc(F)ccc34)c3ccc(Cl)c-2c31 (single isomer, unassigned; enantiomer 2) [Example 143, 4-chloro-3-ethyl-7-{3-[(6-fluoronaphthalen-1-yl)oxy]propyl}-2-methyl-14-[2-(morpholin-4-yl)ethyl]-10,11,12,13,14,15-hexahydro-2H-pyrazolo[3′,4′:8,9][1,6]diazacycloundecino[10,11,1-hi]indole-8-carboxylic acid (Enantiomer 2)]	9.4e-06	–	–	–	–	–	–	IC50 [3]: 62 nM
Cc1c2c(nn1C)COCC(F)(F)CCn1c(C(=O)O)c(CCCOc3cccc4ccccc34)c3ccc(Cl)c-2c31 (single isomer, unassigned; enantiomer 1) [Example 56, 4-chloro-12,12-difluoro-2,3-dimethyl-7-{3-[(naphthalen-1-yl)oxy]propyl}-2,10,11,12,13,15-hexahydropyrazolo[4′,3′:9,10][1,6]oxazacycloundecino[8,7,6-hi]indole-8-carboxylic acid-N-ethylethanamine salt—Enantiomer 1]	3.4e-07	–	3.3e-06	130	3.3e-07	310	2.2e-07	IC50 [6]: 7.79e-07 M; IC50 ([7]; 72 h): 1.23e-06 M; IC50 [11]: 4.4e-07 M
CCc1c2c(nn1C)COCC(O)CCn1c(C(=O)O)c(CCCOc3cccc4cc(F)ccc34)c3ccc(Cl)c-2c31 (stereo not drawn) [Example 100, 4-chloro-3-ethyl-7-{3-[(6-fluoronaphthalen-1-yl)oxy]propyl}-12-hydroxy-2-methyl-2,10,11,12,13,15-hexahydropyrazolo[4′,3′:9,10][1,6]oxazacycloundecino[8,7,6-hi]indole-8-carboxylic acid-N-ethylethanamine salt]	1.9e-07	–	5e-06	220	1.8e-07	120	1.8e-07	IC50 [6]: 1.85e-07 M; IC50 ([7]; 72 h): 1.18e-06 M; IC50 [11]: 6.7e-07 M
Cc1c2c(nn1C)CN(C)CCCCn1c(C(=O)O)c(CCCOc3cccc4ccccc34)c3ccc(Cl)c-2c31 (single isomer, unassigned; enantiomer 2) [Example 13, (−)-4-chloro-2,3,14-trimethyl-7-[3-(naphthalen-1-yloxy)propyl]-10,11,12,13,14,15-hexahydro-2H-pyrazolo[3′,4′:8,9][1,6]diazacycloundecino[10,11,1-hi]indole-8-carboxylic acid-N-ethylethanamine salt (Enantiomer 2)]	6.4e-06	1.22e-05	–	–	–	–	6.9e-06	–
Cc1c2c(nn1C)CN(C)CCCCn1c(C(=O)O)c(CCCOc3cccc4cc(F)ccc34)c3ccc(Cl)c-2c31 (racemic) [Example 30, (rac)-4-chloro-7-{3-[(6-fluoronaphthalen-1-yl)oxy]propyl}-2,3,14-trimethyl-10,11,12,13,14,15-hexahydro-2H-pyrazolo[3′,4′:8,9][1,6]diazacycloundecino[10,11,1-hi]indole-8-carboxylic acid]	–	–	–	–	–	–	–	IC50 ([4]; 72 h): 1.6e-06 M; IC50 [12]: 227 nM; IC50 ([11]; Homo sapiens, AMO1, 72 h): 4.2e-07 M
Cc1c2c(nn1C)COCCCCn1c(C(=O)O)c(CCCOc3cccc4cc(F)ccc34)c3ccc(Cl)c-2c31 (single isomer, unassigned; enantiomer 2) [Example 17, (−)-4-chloro-7-{3-[(6-fluoronaphthalen-1-yl)oxy]propyl}-2,3-dimethyl-2,10,11,12,13,15-hexahydropyrazolo[4′,3′:9,10][1,6]oxazacycloundecino[8,7,6-hi]indole-8-carboxylic acid-N-ethylethanamine salt (Enantiomer 2)]	2.1e-07	6.7e-06	1.2e-06	290	6.6e-07	380	2.2e-07	IC50 ([7]; IC50, median, SNU-389, 72 h): 9.86e-07 M
